Assay results: patent US10214510B2, “N-cycloalkyl-N-(biheterocyclylethylene)-(thio)carboxamide derivatives” (Bayer CropScience Aktiengesellschaft, priority 2015, dated 2019)

Experiments:
Puccinia recondita = assay: In vivo preventive test on Puccinia recondita (brown rust on wheat)
Description: (§1) Example B: In Vivo Preventive Test on Puccinia Recondita (Brown Rust on Wheat) Solvent: 5% by volume of Dimethyl sulfoxide • 10% by volume of Acetone Emulsifier: 1 μL of Tween® 80 per mg of active ingredient The active ingredients are made soluble and homogenized in a mixture of Dimethyl sulfoxide/Acetone//Tween® 80 and then diluted in water to the desired concentration. The young plants of wheat are treated by spraying the active ingredient prepared as described above. Control plants are treated only with an aqueous solution of Acetone/Dimethyl sulfoxide/Tween® 80. After 24 hours, the plants are contaminated by spraying the leaves with an aqueous suspension of Puccinia recondita spores. The contaminated wheat plants are incubated for 24 hours at 20° C. and at 100% relative humidity and then for 10 days at 20° C. and at 70-80% relative humidity. The test is evaluated 11 days after the inoculation. 0% means an efficacy which corresponds to that of the control plants while an efficacy of 100% means that no disease is observed.

Alternaria brassicae = assay: In vivo preventive test on Alternaria brassicae (leaf spot on radish); conditions: for protection: dose of 100 and 500 ppm of active ingredient
Description: Example A: In Vivo Preventive Test on Alternaria Brassicae (Leaf Spot on Radish) Solvent: 5% by volume of Dimethyl sulfoxide • 10% by volume of Acetone Emulsifier: 1 μL of Tween® 80 per mg of active ingredient The active ingredients are made soluble and homogenized in a mixture of Dimethyl sulfoxide/Acetone//Tween® 80 and then diluted in water to the desired concentration. The young plants of radish are treated by spraying the active ingredient prepared as described above. Control plants are treated only with an aqueous solution of Acetone/Dimethyl sulfoxide/Tween® 80. After 24 hours, the plants are contaminated by spraying the leaves with an aqueous suspension of Alternaria brassicae spores. The contaminated radish plants are incubated for 6 days at 20° C. and at 100% relative humidity. The test is evaluated 6 days after the inoculation. 0% means an efficacy which corresponds to that of the control plants while an efficacy of 100% means that no disease is observed.

[1] = log P by HPLC on reversed-phase column (C 18), EEC Directive 79/831 Annex V.A8; assay type: physicochemical; conditions: for logP: HPLC, C 18, 40° C., 0.1% aqueous formic acid and acetonitrile
Description: In table 1, the log P values were determined in accordance with EEC Directive 79/831 Annex V.A8 by HPLC (High Performance Liquid Chromatography) on a reversed-phase column (C 18), using the method described below: Temperature: 40° C.; Mobile phases: 0.1% aqueous formic acid and acetonitrile; linear gradient from 10% acetonitrile to 90% acetonitrile. Calibration was carried out using unbranched alkan-2-ones (comprising 3 to 16 carbon atoms) with known log P values (determination of the log P values by the retention times using linear interpolation between two successive alkanones). lambda-max-values were determined using UV-spectra from 200 nm to 400 nm and the peak values of the chromatographic signals.

Uromyces appendiculatus = assay: In vivo preventive test on Uromyces appendiculatus (bean rust); conditions: for Efficacy: Table F2, dose 500 ppm; for protection: dose of 500 ppm of active ingredient
Description: as §1, with “F:” for “B:”, “Uromyces Appendiculatus (Bean Rust)” for “Puccinia Recondita (Brown Rust on Wheat)”, “bean” for “wheat”, “Uromyces appendiculatus” for “Puccinia recondita”

[2] = dose of 500 ppm of active ingredient
[3] = dose of 100 and 500 ppm of active ingredient

logP [1]	SMILES	further results
–	CC(Cc1nc2ccc(C(F)(F)F)cn2c1-c1cccnc1)N(C(=O)c1c(C(F)F)nn(C)c1F)C1CC1 (stereo not drawn) [CMP1, N-cyclopropyl-3-(difluoromethyl)-5-fluoro-1-methyl-N-{1-[3-(pyridin-3-yl)-6-(trifluoromethyl)imidazo[1,2-a]pyridin-2-yl]propan-2-yl}-1H-pyrazole-4-carboxamide, reference compound]	Efficacy (Puccinia recondita; Table B2, dose 500 ppm): 0%; protection (Puccinia recondita; [2]): no protection; Efficacy (Alternaria brassicae; Table A2, dose 100 ppm): 0%; Efficacy (Alternaria brassicae; Table A2, dose 500 ppm): 43%; protection (Alternaria brassicae): less than 50%
4.72	CC(Cc1ncc(C(F)(F)F)cc1-c1csc2ccccc12)N(C(=O)c1c(C(F)F)nn(C)c1F)C1CC1 (stereo not drawn) [I.02]	–
3.53	CC(Cc1ncc(C(F)(F)F)cc1-c1cnc2ccccc2c1)N(C(=O)c1c(C(F)F)nn(C)c1F)C1CC1 (stereo not drawn) [I.01]	–
3.39	Cc1nc(C(F)F)c(C(=O)N(C(C)Cc2nc3ccc(C(F)(F)F)cn3c2-c2ccsc2)C2CC2)s1 (stereo not drawn) [I.25]	–
3.55	CC(Cc1ncc(C(F)(F)F)cc1-c1ccco1)N(C(=O)c1cn(C)nc1C(F)F)C1CC1 (stereo not drawn) [I.08]	–
3.35	Cc1cc(C(=O)N(C(C)Cc2nc3ccc(C(F)(F)F)cn3c2-c2ccsc2)C2CC2)c(C)o1 (stereo not drawn) [I.24]	–
3.08	CC(Cc1nc2ccc(C(F)(F)F)cn2c1-c1ccsc1)N(C(=O)c1nn(C)nc1C(F)F)C1CC1 (stereo not drawn) [I.20]	–
3.67	CC(Cc1ncc(C(F)(F)F)cc1-c1ccsc1)N(C(=O)c1cn(C)nc1C(F)F)C1CC1 (stereo not drawn) [I.09]	–
2.44	CC(Cc1nc2ccc(C(F)(F)F)cn2c1-c1cccc2cccnc12)N(C(=O)c1c(C(F)F)nn(C)c1F)C1CC1 (stereo not drawn) [I.18]	–
4.37	Cc1cscc1-c1cc(C(F)(F)F)cnc1CC(C)N(C(=O)c1c(C(F)F)nn(C)c1F)C1CC1 (stereo not drawn) [I.07]	–
3.99	CC(Cc1ncc(C(F)(F)F)cc1-c1cnc2ccccc2c1)N(C(=S)c1c(C(F)F)nn(C)c1F)C1CC1 (stereo not drawn) [I.13]	–
3.99	Cc1cscc1-c1cc(C(F)(F)F)cnc1CC(C)N(C(=O)c1cn(C)nc1C(F)F)C1CC1 (stereo not drawn) [I.10]	–
5.32	CC(Cc1ncc(C(F)(F)F)cc1-c1csc2ccccc12)N(C(=S)c1c(C(F)F)nn(C)c1F)C1CC1 (stereo not drawn) [I.14]	–
4.46	CC(Cc1ncc(C(F)(F)F)cc1-c1coc2ccccc12)N(C(=O)c1c(C(F)F)nn(C)c1F)C1CC1 (stereo not drawn) [I.04]	–
3.78	CC(Cc1ncc(C(F)(F)F)cc1-c1ccnc2cc(Cl)ccc12)N(C(=O)c1cn(C)nc1C(F)F)C1CC1 (stereo not drawn) [I.12]	–
2.8	CC(Cc1nc2ccc(C(F)(F)F)cn2c1-c1ccsc1)N(C(=O)c1c(C(F)F)nn(C)c1F)C1CC1 (stereo not drawn) [I.15]	–
–	CC(Cc1ncc(C(F)(F)F)cc1-c1ccsc1)N(C(=O)c1c(C(F)F)nn(C)c1F)C1CC1 (stereo not drawn) [I.06, N-cyclopropyl-3-(difluoromethyl)-5-fluoro-1-methyl-N-{1-[3-(3-thienyl)-5-(trifluoro-methyl)-pyridin-2-yl]propan-2-yl}-1H-pyrazole-4-carboxamide]	chromatographic logP ([1]; reversed-phase HPLC column (C 18), preparation example 1): 4.03
2.44	COc1ccnc(-c2c(CC(C)N(C(=O)c3c(C(F)F)nn(C)c3F)C3CC3)nc3ccc(C(F)(F)F)cn23)n1 (stereo not drawn) [I.19]	–
1.82	CC(Cc1ncc(C(F)(F)F)cc1CN1CCCCC1)N(C(=O)c1c(C(F)F)nn(C)c1F)C1CC1 (stereo not drawn) [I.21]	–
1.67	CC(Cc1ncc(C(F)(F)F)cc1CN1CCCCC1)N(C(=O)c1cn(C)nc1C(F)F)C1CC1 (stereo not drawn) [I.22]	–
4.44	CC(Cc1nc2ccc(C(F)(F)F)cn2c1-c1ccsc1)N(C(=O)c1ccsc1Cl)C1CC1 (stereo not drawn) [I.23]	–
2.63	CC(Cc1nc2ccc(C(F)(F)F)cn2c1-c1ccoc1)N(C(=O)c1c(C(F)F)nn(C)c1F)C1CC1 (stereo not drawn) [I.16]	Efficacy (Puccinia recondita; Table B2, dose 500 ppm): 78%; protection (Puccinia recondita; [2]): at least 70%; Efficacy (Alternaria brassicae; Table A2, dose 100 ppm): 86%; Efficacy (Alternaria brassicae; Table A2, dose 500 ppm): 86%; protection (Alternaria brassicae): at least 80%
4.20	CC(Cc1ncc(C(F)(F)F)cc1-c1ccnc2cc(Cl)ccc12)N(C(=O)c1c(C(F)F)nn(C)c1F)C1CC1 (stereo not drawn) [I.03]	–
3.57	CC(Cc1nc2ccc(C(F)(F)F)cn2c1-c1csc2ccccc12)N(C(=O)c1c(C(F)F)nn(C)c1F)C1CC1 (stereo not drawn) [I.17]	–
3.76	CC(Cc1ncc(C(F)(F)F)cc1-c1ccoc1)N(C(=O)c1c(C(F)F)nn(C)c1F)C1CC1 (stereo not drawn) [I.05]	Efficacy (Puccinia recondita; Table B3, dose 100 ppm): 93%; Efficacy (Puccinia recondita; Table B3, dose 500 ppm): 100%; protection (Puccinia recondita; [3]): at least 90%; Efficacy (Uromyces appendiculatus): 100%; protection (Uromyces appendiculatus): total protection
4.11	CC(Cc1ncc(C(F)(F)F)cc1-c1coc2ccccc12)N(C(=O)c1cn(C)nc1C(F)F)C1CC1 (stereo not drawn) [I.11]	–
–	CC(Cc1ncc(C(F)(F)F)cc1-c1cccnc1)N(C(=O)c1c(C(F)F)nn(C)c1F)C1CC1 (stereo not drawn) [CMP2, N-cyclopropyl-3-(difluoromethyl)-5-fluoro-1-methyl-N-{1-[5-(trifluoromethyl)-3,3′-bipyridin-2-yl]propan-2-yl}-1H-pyrazole-4-carboxamide, reference compound]	Efficacy (Puccinia recondita; Table B3, dose 100 ppm): 38%; Efficacy (Puccinia recondita; Table B3, dose 500 ppm): 69%; protection (Puccinia recondita; [3]): less than 70%; Efficacy (Uromyces appendiculatus): 0%; protection (Uromyces appendiculatus): no protection
